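Cells were grown in 96-well plates and exposed to each compound for 48 hours at five concentrations; endpoints were interpolated linearly between bracketing concentrations, or set to the highest concentration if not reached. Definition used: TGI = concentration required for complete inhibition of growth.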

Among the test systems are 786-0 renal; EKVX NSCLC; HCT-116 colon; HOP-62 NSCLC; HOP-92 NSCLC; HT29 colon; K-562 leukemia; OVCAR-8 ovarian; SK-MEL-2 melanoma; SK-OV-3 ovarian; SNB-75 CNS; SW-620 colon; U251 CNS; UACC-62 melanoma; UO-31 renal; MDA-MB-435.
Holding throughout (assay): NCI-60 cell line screen, 48 h

Turning to `O=c1cc(-c2ccccc2)oc2cc(OCCSCCCCCCCCCCSCCOc3ccc4c(=O)cc(-c5ccccc5)oc4c3)ccc12`, the TGI with 786-0 renal, with EKVX NSCLC, in the test with HCT-116 colon, with HOP-62 NSCLC, in the test on HOP-92 NSCLC and in the test with HT29 colon was over 100 µM each time. The TGI in the test with K-562 leukemia, with OVCAR-8 ovarian, in the test with SK-MEL-2 melanoma, with SK-OV-3 ovarian, with SNB-75 CNS and with SW-620 colon was over 100 µM throughout. For the same compound, the TGI in the test on U251 CNS, in the test on UACC-62 melanoma and in the test with UO-31 renal was over 100 µM in each case.

Take `[N-]=[N+]=NC(CBr)c1cn([C@H]2C[C@H](O)[C@@H](CO)O2)c(=O)[nH]c1=O` (stereo partly drawn): the TGI in the test with 786-0 renal, with EKVX NSCLC, with HCT-116 colon, with HOP-62 NSCLC, with HOP-92 NSCLC and with HT29 colon was over 100 µM in each case. Further, the TGI in the test with K-562 leukemia, in the test on OVCAR-8 ovarian, with SK-MEL-2 melanoma, with SK-OV-3 ovarian, with SNB-75 CNS and in the test on SW-620 colon was over 100 µM throughout. In addition, the TGI with U251 CNS, in the test with UACC-62 melanoma and with UO-31 renal was over 100 µM throughout.

In the case of `O=C(O)Cn1c(=O)[nH]c(=O)c2c1ncn2Cc1ccccc1`, the TGI in the test on 786-0 renal, in the test with EKVX NSCLC, with HCT-116 colon, in the test on HOP-62 NSCLC, with HOP-92 NSCLC and in the test with HT29 colon was over 100 µM each time. For the same compound, the TGI in the test with K-562 leukemia, in the test on OVCAR-8 ovarian, with SK-MEL-2 melanoma, in the test on SK-OV-3 ovarian, in the test on SNB-75 CNS and with SW-620 colon was over 100 µM each time. Also, the TGI with U251 CNS, in the test on UACC-62 melanoma and with UO-31 renal was over 100 µM throughout.

As for `CSc1nc2[nH]c(=O)c(C)nc2c(=O)[nH]1`, the TGI in the test on 786-0 renal, with EKVX NSCLC, in the test with HCT-116 colon, in the test on HOP-62 NSCLC, in the test on HOP-92 NSCLC and in the test with HT29 colon was over 100 µM in each case. The TGI in the test with K-562 leukemia, with OVCAR-8 ovarian, with SK-MEL-2 melanoma, with SK-OV-3 ovarian, in the test with SNB-75 CNS and with SW-620 colon was over 100 µM each time. Also, the TGI in the test on U251 CNS, in the test on UACC-62 melanoma and with UO-31 renal was over 100 µM throughout.

On to `NCCN1CC2CCC(CC2)C1`, for which the TGI with 786-0 renal, in the test on EKVX NSCLC, with HCT-116 colon, with HOP-62 NSCLC, in the test with HT29 colon and in the test on K-562 leukemia was over 10 µM in each case. For the same compound, the TGI in the test with MDA-MB-435, with OVCAR-8 ovarian, in the test with SK-MEL-2 melanoma, in the test with SK-OV-3 ovarian, with SNB-75 CNS and in the test with SW-620 colon was over 10 µM in each case. Also, the TGI in the test on U251 CNS, in the test on UACC-62 melanoma and in the test with UO-31 renal was over 10 µM throughout.

In the case of `NNc1[nH]c(=S)[nH]c1C(N)=O`, the TGI with 786-0 renal, in the test with EKVX NSCLC, in the test with HCT-116 colon, in the test with HOP-62 NSCLC, in the test with HT29 colon and with MDA-MB-435 was over 100 µM throughout. For the same compound, the TGI with OVCAR-8 ovarian, with SK-MEL-2 melanoma, in the test with SK-OV-3 ovarian, in the test on SNB-75 CNS, with SW-620 colon and with U251 CNS was over 100 µM each time. For the same compound, the TGI in the test on UACC-62 melanoma and in the test on UO-31 renal was over 100 µM in each case.

As to `COc1ccc([C@@]23OC[C@@H]4[C@@H](OC[C@@H]42)c2cc(OC)c(OC)cc23)cc1OC`, the TGI in the test with 786-0 renal, in the test on EKVX NSCLC, in the test with HCT-116 colon, in the test on HOP-62 NSCLC, in the test with K-562 leukemia and with MDA-MB-435 was over 100 µM each time. For the same compound, the TGI with SK-MEL-2 melanoma, in the test on SK-OV-3 ovarian, with SNB-75 CNS, in the test with SW-620 colon, in the test with U251 CNS and in the test with UACC-62 melanoma was over 100 µM in each case. Moreover, in the test on UO-31 renal, the TGI is over 100 µM.

With `COC(=O)C(Cc1nc2ccc(Cl)cc2[nH]c1=O)/C(=N/NC(N)=O)C(=O)Nc1ccc(Cl)cc1` (stereo not drawn), the TGI with 786-0 renal, with EKVX NSCLC, in the test with HCT-116 colon, in the test with HOP-62 NSCLC, in the test with HOP-92 NSCLC and in the test on HT29 colon was over 100 µM in each case. The TGI in the test on K-562 leukemia, in the test with OVCAR-8 ovarian, in the test on SK-MEL-2 melanoma, with SK-OV-3 ovarian, in the test with SNB-75 CNS and in the test with SW-620 colon was over 100 µM each time. Moreover, the TGI in the test on U251 CNS, in the test with UACC-62 melanoma and in the test on UO-31 renal was over 100 µM throughout.

Take `Cc1nc(Nc2ccc([N+](=O)[O-])cc2)sc1C(/C=C/c1ccc(N(C)C)cc1)=N/NC(=O)c1ccccc1`: the TGI with 786-0 renal was over 100 µM; with EKVX NSCLC, over 100 µM; with HCT-116 colon, over 100 µM; in the test on HOP-62 NSCLC it was over 100 µM; in the test on HOP-92 NSCLC it was 52.7 µM; in the test on HT29 colon it was over 100 µM. Also, the TGI in the test on K-562 leukemia, in the test on OVCAR-8 ovarian, in the test with SK-MEL-2 melanoma, in the test on SK-OV-3 ovarian, with SNB-75 CNS and with SW-620 colon was over 100 µM throughout. Also, the TGI in the test on U251 CNS was over 100 µM; in the test on UACC-62 melanoma, 28.5 µM; with UO-31 renal, over 100 µM.

In the case of `COc1cc([C@@H]2c3cc4c(cc3[C@@H](NC(=O)c3cccc(F)c3)C3COC(=O)[C@@H]32)OCO4)cc(OC)c1O` (stereo partly drawn), the TGI is 2.26 µM in the test on 786-0 renal; 7.49 µM in the test with EKVX NSCLC; 13.8 µM with HCT-116 colon; 1.94 µM in the test with HOP-62 NSCLC; 89.6 µM with HOP-92 NSCLC; 15.4 µM in the test on HT29 colon. The TGI with K-562 leukemia was over 100 µM; with OVCAR-8 ovarian, 16.1 µM; in the test with SK-MEL-2 melanoma it was 18 µM; in the test with SK-OV-3 ovarian it was 5.78 µM; in the test with SNB-75 CNS, 5.24 µM; in the test with SW-620 colon it was 16.2 µM. For the same compound, the TGI with U251 CNS came out at 1.94 µM; in the test on UACC-62 melanoma it was 3.7 µM; with UO-31 renal, 11.2 µM.

With `CC(C)C(/C=C/c1ccc(Br)cc1)=N\NC(N)=O`, the TGI in the test with 786-0 renal, in the test on EKVX NSCLC, in the test on HCT-116 colon, in the test with HOP-62 NSCLC, in the test with HOP-92 NSCLC and in the test on HT29 colon was over 100 µM throughout. In addition, the TGI in the test with K-562 leukemia, in the test on OVCAR-8 ovarian, in the test on SK-MEL-2 melanoma, in the test with SK-OV-3 ovarian, in the test with SNB-75 CNS and in the test with SW-620 colon was over 100 µM in each case. Also, the TGI with U251 CNS is over 100 µM; in the test on UACC-62 melanoma it was over 100 µM; in the test on UO-31 renal it was 66.6 µM.

Regarding `COc1cc2c(cc1OC)C(N)CC2=O` (stereo not drawn), the TGI with 786-0 renal, with EKVX NSCLC, with HCT-116 colon, in the test on HOP-62 NSCLC, in the test on HOP-92 NSCLC and in the test on HT29 colon was over 100 µM in each case. For the same compound, the TGI in the test with K-562 leukemia, in the test with MDA-MB-435, in the test on OVCAR-8 ovarian, in the test with SK-MEL-2 melanoma, in the test with SK-OV-3 ovarian and in the test with SNB-75 CNS was over 100 µM throughout. The TGI with SW-620 colon, in the test on U251 CNS, with UACC-62 melanoma and in the test with UO-31 renal was over 100 µM throughout.

For `O=C(NO)C(=O)Nc1ccc(Cl)cc1[N+](=O)[O-]`, the TGI in the test on 786-0 renal, in the test with EKVX NSCLC, in the test with HCT-116 colon, in the test on HOP-62 NSCLC, in the test with HOP-92 NSCLC and with HT29 colon was over 100 µM in each case. Also, the TGI in the test with K-562 leukemia, in the test on OVCAR-8 ovarian, with SK-MEL-2 melanoma, in the test on SK-OV-3 ovarian, in the test with SNB-75 CNS and with SW-620 colon was over 100 µM in each case. Also, the TGI in the test on U251 CNS, in the test with UACC-62 melanoma and in the test on UO-31 renal was over 100 µM in each case.

As for `Cn1c2cc(O)cc(O)c2c(=O)c2c([N+](=O)[O-])cccc21`, the TGI in the test on 786-0 renal, with EKVX NSCLC, in the test on HCT-116 colon, in the test with HOP-62 NSCLC, in the test with HOP-92 NSCLC and in the test on HT29 colon was over 100 µM each time. Further, the TGI in the test with K-562 leukemia, in the test with OVCAR-8 ovarian, in the test with SK-MEL-2 melanoma, in the test on SK-OV-3 ovarian, with SNB-75 CNS and in the test with SW-620 colon was over 100 µM each time. Also, the TGI in the test with U251 CNS, in the test on UACC-62 melanoma and in the test on UO-31 renal was over 100 µM throughout.

(Values after PubChem BioAssay (NCI).)
